Legend:
[1] = test system: mouse models of ovalbumin-induced asthma; assay: Fractional count of cellular components of bronchoalveolar lavage fluid; assay type: in vivo; conditions: 18 days, mean ± SD
Procedure: (§1) The benzamidine compound of Chemical Formula 1 was assayed for therapeutic effect on allergic inflammation in mouse models of ovalbumin-induced asthma. Starting at the sensitization with ovalbumin, the administration of the benzamidine compound was for 18 consecutive days. The experimental animals were re-exposed to ovalbumin 15 days after the sensitization and then sacrificed 3 days after the re-exposure. Changes in lung weight, cellular components of peripheral blood and bronchoalveolar lavage fluid, and lung histopathology were observed.
(§2) A total of 20 female C57BL/6 mice (6-week-old, BioGenomics, Korea) was adapted to a laboratory environment for 6 days before being used in earnest experiments. While being housed at a density of five in a plastic cage, the experimental animals were bred in a breeding room with controlled temperature (20 to 25° C.) and humidity (30 to 35%). Under light-dark cycles of 12 hours, mice were allowed to have free access to feedstuff and tap water. While asthma was induced in 15 mice by ovalbumin, 5 mice were used as a non-treated group.
(§3) 100 mg and 200 mg of N-hydroxy-4-{5-[4-(5-isopropyl-2-methyl-1,3-thiazol-4-yl)phenoxy]pentoxy}-benzamidine were completely dissolved in 5 ml of sterilized distilled water. The benzamidine compound in the solutions was orally administered at doses of 100 mg and 200 mg per kg of body weight once a day from the day of the sensitization with ovalbumin. The control group was administered with equal volumes of sterilized distilled water in the same manner.
(§4) A solution of 200 μg of ovalbumin (Grade V; Sigma, St. Louis, Mo., USA) and 180 mg of aluminum hydroxide (Al(OH)3, dried powder gel; Aldrich, Milwaukee, USA) in 4 ml of physiological saline was allowed to stand at 4° C. overnight and was administered to the experimental animals (200 μl, abdominal injection) for sensitization. As for the non-treated group, a solution of only aluminum hydroxide in saline was injected. 15 days after sensitization, a 1.5% ovalbumin solution was sprayed in air using a nebulizer, followed by exposing the experimental animals to the spray for 10 min to induce asthma therein. The non-treated group was exposed only to saline in the same manner. All the experimental animals were sacrificed 3 days after the exposure.
On the final day of experiment, secretions present in bronchi and alveola were examined for cytological constitution. To this end, after being etherized, the experimental animals were operated to open the cervical region and the thorax. The jugular vein was allowed to bleed, followed by endotracheal intubation. 3 ml of phosphate buffered saline was injected twice through the tube and the thorax was massaged for 30 sec to obtain cell suspension from the lungs. The cell suspension was centrifuged at 3000 rpm for 30 min and resuspended in DPBS (Gibco BRL, NY, USA). After the cell suspension was smeared on a slide glass, the cells were stained with Giemsa. A total count of the whole cells present in the smear and fractional counts of neutrophils, eosinophils, basophils, macrophages, and epithelioid cells were measured and are given in Table 4, below.

[2] = test system: mouse models of ovalbumin-induced asthma; assay: Lung histopathological observation and histomorphology; assay type: in vivo; conditions: for Alveolar Area (proportion of alveolar lumen in lung tissue) / Counts of goblet Cells Brochiole / Counts of goblet Cells Bronchus / Wall Thick. Brochiole / Wall Thick. Bronchus: 18 days, mean ± SD
Procedure: as §1, §2, §3, §4
The lungs removed after asthma induction were fixed in 10% neutral formalin and embedded in paraffin. The paraffin-embedded tissue was sliced at a thickness of 3 to 4 μm, stained with hematoxylin-eosin or Masson's trichrome and observed through an optical microscope.
From the lung tissue specimen prepared above, alveolar areas (proportion of alveolar lumen in lung tissue), populations of the goblet cells present in the bronchus and the bronchiole, and wall thicknesses of the bronchus and the bronchiole were examined using an analysis Image processing system (SIS Germany). The alveolar areas are represented as percentages, the populations of the goblets cells in the bronchus and bronchiole as counts per 1,000 cells, and the wall thickness of the bronchus and bronchiole in μm in Table 5.

[3] = Change in body weight gain, mouse model of ovalbumin-induced asthma; assay type: in vivo; conditions: mean ± SD, in g (unit assumed)
Procedure: as §1, §2, §3, §4
All the experimental animals were measured for body weight 1, 7, 14, 16 and 17 days after administration. In order to reduce difference among individuals due to feedstuff intake, all experimental animals were starved for 18 hours or more on the beginning day of the administration and on the sacrificing day before weight measurement. To minimize the difference of change in body weight of individual animals, body weight gains during time periods of the sensitization, the asthma induction after exposure and the whole experiment were calculated.

[4] = test system: mouse models of ovalbumin-induced asthma; assay: Lung weight, mouse model of ovalbumin-induced asthma; assay type: in vivo; conditions: 18 days, mean ± SD; for Lung Relative Wt.: percentage of body weight
Procedure: as §1, §2, §3, §4
On the final day of experiment, the lungs were separated from adjacent organs. The removed lungs were weighed in grams. To minimize errors due to the difference in body weight among individual animals, the relative weight of the lungs was calculated as a percentage of body weight using the following mathematic formula 1.

[5] = test system: mouse models of ovalbumin-induced asthma; assay: Total count of leukocytes in blood and fractional calculation of leukocytes; assay type: in vivo; conditions: 18 days; for Total leukocytes in blood: mean ± SD; for Basophils in blood / Eosinophils in blood / Lymphocytes in blood / Monocytes in blood / Neutrophils in blood: portion per 200 leukocytes
Procedure: as §1, §2, §3, §4
On the final day of experiment, all the experimental animals were etherized and underwent laparotomy to expose the abdominal vena cava, from which 1 ml of blood was then taken. Using a hemocytometer, a blood sample was measured for total leukocyte counts in a ×10^3/1 mm^3 unit. Immediately after blood collection, the blood sample was smeared on slide glasses, fixed with methanol, and stained with Giemsa. And then, lymphocytes, eosinophils, neutrophils, monocytes, and basophils were calculated for their respective portions per 200 leukocytes and are represented as percentages in Table 3, below.

asthma = conditions: clinical test, Lilly; Evans D J, Thorax 1996; cited from earlier work
bronchial asthma = conditions: Sakurada T. et al., Eur J Pharmacol 1999, cited from earlier work

Cc1nc(-c2ccc(OCCCCCOc3ccc(C(=N)NO)cc3)cc2)c(C(C)C)s1 [Cpd. of Formula 1, N-hydroxy-4-{5-[4-(5-isopropyl-2-methyl-1,3-thiazol-4-yl)phenoxy]pentoxy}-benzamidine]
Basophils in bronchoalveolar lavage fluid ([1]; 100 mg/kg orally once a day): 0.50 ± 0.50%
Epithelioids in bronchoalveolar lavage fluid ([1]; 100 mg/kg orally once a day): 21.00 ± 14.77%
Lymphocytes in bronchoalveolar lavage fluid ([1]; 100 mg/kg orally once a day): 56.90 ± 15.04%
Monocytes in bronchoalveolar lavage fluid ([1]; 100 mg/kg orally once a day): 3.10 ± 3.73%
Neutrophils in bronchoalveolar lavage fluid ([1]; 100 mg/kg orally once a day): 17.50 ± 8.06 %
eosinophils in bronchoalveolar lavage fluid ([1]; 100 mg/kg orally once a day): 4.30 ± 1.44 %
Basophils in bronchoalveolar lavage fluid ([1]; 200 mg/kg orally once a day): 0.10 ± 0.22 %
Epithelioids in bronchoalveolar lavage fluid ([1]; 200 mg/kg orally once a day): 15.50 ± 9.74%
Lymphocytes in bronchoalveolar lavage fluid ([1]; 200 mg/kg orally once a day): 56.80 ± 22.52%
Monocytes in bronchoalveolar lavage fluid ([1]; 200 mg/kg orally once a day): 3.50 ± 2.57%
Neutrophils in bronchoalveolar lavage fluid ([1]; 200 mg/kg orally once a day): 13.90 ± 9.85%
eosinophils in bronchoalveolar lavage fluid ([1]; 200 mg/kg orally once a day): 3.60 ± 2.88 %
Alveolar Area (proportion of alveolar lumen in lung tissue) ([2]; 100 mg/kg orally once a day): 55.53 ± 4.26 # percentages
Counts of goblet Cells Brochiole ([2]; 100 mg/kg orally once a day): 53.80 ± 11.73 ## counts per 1,000 cells
Counts of goblet Cells Bronchus ([2]; 100 mg/kg orally once a day): 317.60 ± 75.46 # counts per 1,000 cells
Wall Thick. Brochiole ([2]; 100 mg/kg orally once a day): 27.73 ± 4.68 ## μm
Wall Thick. Bronchus ([2]; 100 mg/kg orally once a day): 60.92 ± 8.53 # μm
Alveolar Area (proportion of alveolar lumen in lung tissue) ([2]; 200 mg/kg orally once a day): 61.62 ± 6.93 # percentages
Counts of goblet Cells Brochiole ([2]; 200 mg/kg orally once a day): 42.80 ± 10.69 # counts per 1,000 cells
Counts of goblet Cells Bronchus ([2]; 200 mg/kg orally once a day): 256.80 ± 71.58 # counts per 1,000 cells
Wall Thick. Brochiole ([2]; 200 mg/kg orally once a day): 24.79 ± 3.03 # μm
Wall Thick. Bronchus ([2]; 200 mg/kg orally once a day): 40.69 ± 5.37 # μm
Inflammatory cell populations in tissues around the primary bronchiole and alveola and around bronchial epithelia (FIG. 1) ([2]; compared to the control group, 100 and 200 mg/kg, optical microscope): reduction of the inflammatory cell population in the tissues in a dose-dependent pattern
Body weight gain, Asthma induction period after exposure ([3]; 100 mg/kg orally once a day): 0.34 ± 0.34
Body weight gain, Over whole experimental period ([3]; 100 mg/kg orally once a day): 2.68 ± 0.52
Body weight gain, Sensitization period ([3]; 100 mg/kg orally once a day): 3.50 ± 0.51
Body weight gain, Asthma induction period after exposure ([3]; 200 mg/kg orally once a day): 0.36 ± 0.59
Body weight gain, Over whole experimental period ([3]; 200 mg/kg orally once a day): 2.90 ± 0.40
Body weight gain, Sensitization period ([3]; 200 mg/kg orally once a day): 3.08 ± 0.71
Lung Absolute Wt. ([4]; 100 mg/kg orally once a day): 0.128 ± 0.007 ## g
Lung Relative Wt. ([4]; 100 mg/kg orally once a day): 0.697 ± 0.030 ## %
Lung Absolute Wt. ([4]; 200 mg/kg orally once a day): 0.125 ± 0.008 # g
Lung Relative Wt. ([4]; 200 mg/kg orally once a day): 0.682 ± 0.030 ## %
Total leukocytes in blood ([5]; 100 mg/kg orally once a day): 10.68 ± 1.76 ## ×10^3/1 mm^3
Basophils in blood ([5]; 100 mg/kg orally once a day): 0.10 ± 0.20%
Eosinophils in blood ([5]; 100 mg/kg orally once a day): 49.60 ± 15.79 %
Lymphocytes in blood ([5]; 100 mg/kg orally once a day): 41.70 ± 12.90 %
Monocytes in blood ([5]; 100 mg/kg orally once a day): 3.70 ± 1.60%
Neutrophils in blood ([5]; 100 mg/kg orally once a day): 4.90 ± 2.90 %
Total leukocytes in blood ([5]; 200 mg/kg orally once a day): 10.44 ± 1.81 ## ×10^3/1 mm^3
Basophils in blood ([5]; 200 mg/kg orally once a day): 0.00 ± 0.00%
Eosinophils in blood ([5]; 200 mg/kg orally once a day): 36.90 ± 8.33 # %
Lymphocytes in blood ([5]; 200 mg/kg orally once a day): 53.80 ± 5.50 # %
Monocytes in blood ([5]; 200 mg/kg orally once a day): 4.40 ± 1.70 %
Neutrophils in blood ([5]; 200 mg/kg orally once a day): 5.20 ± 2.00 %

CCCc1c(OCCCOc2cc(O)c(-c3ccc(F)cc3)cc2CC)cccc1Oc1ccccc1C(=O)O [LY293111]
Effect in treating asthma (asthma): ineffective in treating asthma

COc1ccc(/C=C/CCCCOc2cccc(OCCCCC(=O)O)c2CCC(=O)O)cc1 [ONO-4057]
Effect on bronchial asthma, in combination (bronchial asthma; in combination with the cysteinyl leukotriene receptor antagonist Zafirlukast): medicinal effect on bronchial asthma
Effect on bronchial asthma, used alone (bronchial asthma; used alone): ineffective for the treatment thereof
